Patent US7901936B2, “Method for stimulating self-renewal of neural stem cells and enhancing neurogenesis” (Albany Medical College, priority 2004, dated 2011)
Starred links: 1 amine or outer side, 2 acyl side, 3 side chain; linkers in the order of their positions; H or OH if unused. Non-standard residues stand in square brackets, D forms with d. Residues, ends and D or L forms follow the SMILES beside them. *: point of attachment. X1 = CC(N[*:1])C(=O)C(F)(F)C(=O)[*:2]; Boc = CC(C)(C)OC(=O)*

Columns and labels:
[1] = tested on: BPAE co-culture clones (cortical stem cells); experiment: Inhibition of Notch activation in endothelial co-cultured cortical stem cell clones; format: cell-based, mouse; settings: BPAE co-culture clones treated for 6 hours, 50 μM, vs DMSO vehicle
Protocol: γ-secretase inhibitor II (Calbiochem, 50 μM) in DMSO was added to co-cultured cells after 4 days for 6 hours. The same amount of DMSO was used as vehicle control. The cells were then fixed and stained for β-tubulin III and double-labelled for Nestin or β-catenin, and the stained cells were quantified.

[2] = tested on: cortical stem cell clones; experiment: Clonal growth of cortical stem cells with added soluble growth factors (without feeder cells); format: cell-based, mouse; settings: for duplication of the effect of endothelial co-culture on clonal growth: factor added at 10-50 ng/ml to serum-free medium with FGF2, no feeder cells
Protocol: Embryonic cerebral cortices and adult SVZ were dissected and dissociated as described (18-20). Single cells were plated into poly-l-lysine-coated 6-well plates (Costar) at clonal density (2000-4000 cells/well) and cultured in basal serum-free medium consisting of DMEM, B27, N2, NAC and 10 ng/ml FGF2 (19,20). To test the effects of soluble growth factors (PDGF, CNTF, TGFβ, IGF1, IL1, IL6, G-CSF, M-CSF, GM-CSF, LIF, BDNF, Steel factor, VEGF or EGF), each factor was added to serum-free medium with FGF2 at a range of 10-50 ng/ml, and clonal growth (cell number and generation of neurons and glia) was assessed (without co-cultured feeder cells). LIF and VEGF were also tested in combination, each added at 10 ng/ml into serum-free medium, with and without FGF2.

Row | Compound | duplication of the effect of endothelial co-culture on clonal growth [2] | further results
1 | CCC(C)C(NC(=O)C(NC(=O)OC(C)(C)C)C(C)C)C(=O)NC(C)C(=O)C(F)(F)C(=O)NC(C(=O)NC(C(=O)OC)C(C)CC)C(C)C (centres unmarked) [γ-secretase inhibitor II] (Boc-VI[X1]VI-OMe; configuration not given here) |  | β-catenin staining [1]: significantly decreased; β-tubulin-III staining [1]: significantly increased
2 | EGF: soluble growth factor (NSDSECPLSHDGYCLHDGVCMYIEALDKYACNCVVGYIGERCQYRDLKWWELR; Epidermal growth factor; UniProt P01133 971-1023, looked up) | none duplicated the result we see from endothelial co-cultures | 
3 | FGF2: soluble growth factor in basal serum-free medium | none duplicated the result we see from endothelial co-cultures | neural stem cell proliferation ([2]; FGF2 alone): promotes neural stem cell proliferation; neural stem cell self-renewal ([2]; FGF2 alone): cannot alone maintain their self-renewal
4 | GM-CSF: soluble growth factor | none duplicated the result we see from endothelial co-cultures | 
5 | IGF1: soluble growth factor | none duplicated the result we see from endothelial co-cultures | 
6 | IL6: soluble growth factor | none duplicated the result we see from endothelial co-cultures | 
7 | LIF: soluble growth factor | none duplicated the result we see from endothelial co-cultures | 
8 | PDGF | none duplicated the result we see from endothelial co-cultures | 
9 | Steel factor: soluble growth factor | none duplicated the result we see from endothelial co-cultures | 
10 | TGFβ | none duplicated the result we see from endothelial co-cultures | 
11 | VEGF | Neither factor, alone or in combination, duplicated the effect of endothelial factors | 
